Measured values reported in PubChem BioAssay (NCI).
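Protocol summary: plate cells (96-well), add compound at 5 concentrations, incubate 48 h, interpolate endpoints linearly. The concentration for full growth arrest is given as TGI.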

Key:
Experiment in all cases: NCI anticancer screen, dose series, 48 h
[1] = test system: 786-0 renal
[2] = test system: A498 renal
[3] = test system: A549 NSCLC
[4] = test system: ACHN renal
[5] = test system: CAKI-1 renal
[6] = test system: CCRF-CEM leukemia
[7] = test system: DLD-1 colon
[8] = test system: DMS 114 small cell lung
[9] = test system: DMS 273 small cell lung
[10] = test system: EKVX NSCLC
[11] = test system: HCC-2998 colon
[12] = test system: HCT-116 colon
[13] = test system: HCT-15 colon
[14] = test system: HL-60(TB) leukemia
[15] = test system: HOP-62 NSCLC
[16] = test system: HT29 colon
[17] = test system: IGROV1 ovarian
[18] = test system: KM12 colon
[19] = test system: KM20L2 colon
[20] = test system: LXFL 529 NSCLC
[21] = test system: M14 melanoma
[22] = test system: M19-MEL melanoma
[23] = test system: MALME-3M melanoma
[24] = test system: NCI-H226 lung
[25] = test system: NCI-H23 lung
[26] = test system: NCI-H460 lung
[27] = test system: OVCAR-3 ovarian
[28] = test system: OVCAR-4 ovarian
[29] = test system: OVCAR-5 ovarian
[30] = test system: OVCAR-8 ovarian
[31] = test system: RPMI-8226 leukemia
[32] = test system: RXF 393 renal
[33] = test system: SF-295 CNS
[34] = test system: SF-539 CNS
[35] = test system: SK-MEL-2 melanoma
[36] = test system: SK-MEL-28 melanoma
[37] = test system: SK-MEL-5 melanoma
[38] = test system: SK-OV-3 ovarian
[39] = test system: SNB-75 CNS
[40] = test system: SNB-78 CNS
[41] = test system: SW-620 colon
[42] = test system: TK-10 renal
[43] = test system: U251 CNS
[44] = test system: UACC-257 melanoma
[45] = test system: UACC-62 melanoma
[46] = test system: UO-31 renal
[47] = test system: XF 498 CNS
[48] = test system: COLO 205 colon
[49] = test system: HOP-92 NSCLC
[50] = test system: K-562 leukemia
[51] = test system: LOX IMVI melanoma
[52] = test system: MOLT-4 leukemia
[53] = test system: NCI-H522 lung
[54] = test system: SF-268 CNS
[55] = test system: SN12C renal
[56] = test system: SNB-19 CNS
[57] = test system: SR leukemia

With `CC(=O)O[C@H]1CC[C@@]2(C)C(=CC[C@@H]3C2CC[C@]2(C)Nc4c(cnn4-c4ccccc4)CC32)C1` (some centres not stated) the TGI [1] was 36.6 µM, the TGI [2] was 51.9 µM and the TGI [3] was > 100 µM. For the same compound, the TGI [4] was > 100 µM, the TGI [5] was > 100 µM and the TGI [6] was > 100 µM. For the same compound, the TGI [7] was > 100 µM, the TGI [8] was > 100 µM and the TGI [9] was 18.4 µM. For the same compound, the TGI [10] was > 100 µM, the TGI [11] was 70.8 µM and the TGI [12] was > 100 µM. For the same compound, the TGI [13] was > 100 µM, the TGI [14] was > 100 µM and the TGI [15] was 63.9 µM. The TGI [16] was > 100 µM, the TGI [17] was > 100 µM and the TGI [18] was 69.8 µM. The TGI [19] was > 100 µM, the TGI [20] was > 100 µM and the TGI [21] was > 100 µM. For the same compound, the TGI [22] was > 100 µM, the TGI [23] was > 100 µM and the TGI [24] was > 100 µM. For the same compound, the TGI [25] was > 100 µM, the TGI [26] was > 100 µM and the TGI [27] was > 100 µM. For the same compound, the TGI [28] was 66.9 µM, the TGI [29] was > 100 µM and the TGI [30] was > 100 µM. The TGI [31] was 6.62 µM, the TGI [32] was 42.2 µM and the TGI [33] was 8.52 µM. For the same compound, the TGI [34] was 9.12 µM, the TGI [35] was > 100 µM and the TGI [36] was > 100 µM. For the same compound, the TGI [37] was > 100 µM, the TGI [38] was > 100 µM and the TGI [39] was 30.8 µM. The TGI [40] was > 100 µM, the TGI [41] was > 100 µM and the TGI [42] was > 100 µM. For the same compound, the TGI [43] was > 100 µM, the TGI [44] was > 100 µM and the TGI [45] was > 100 µM. For the same compound, the TGI [46] was 84 µM and the TGI [47] was > 100 µM.
In the case of `O=S1(=O)OCCOS(=O)(=O)C1(I)I`, the TGI [1] is reported as 35 µM, the TGI [2] is reported as 30.3 µM and the TGI [3] is reported as 71.1 µM. For the same compound, the TGI [5] was 35.7 µM, the TGI [6] was 35.6 µM and the TGI [48] was 37.8 µM. For the same compound, the TGI [7] was 35.8 µM, the TGI [8] was 43.9 µM and the TGI [9] was 47.3 µM. It also gave a TGI [10] of 59 µM, a TGI [11] of 35.2 µM and a TGI [12] of 29.9 µM. It also gave a TGI [14] of 68.3 µM, a TGI [15] of 38.9 µM and a TGI [49] of 29.8 µM. It also gave a TGI [16] of 69.4 µM, a TGI [17] of 63.8 µM and a TGI [50] of 74.6 µM. The TGI [18] was 40.8 µM, the TGI [51] was 30.5 µM and the TGI [20] was 27.3 µM. The TGI [21] was 50.7 µM, the TGI [22] was 53.8 µM and the TGI [23] was 37.6 µM. For the same compound, the TGI [52] was 56.9 µM, the TGI [24] was 29.7 µM and the TGI [25] was 27.9 µM. For the same compound, the TGI [53] was 45.2 µM, the TGI [27] was 73.8 µM and the TGI [28] was 48.9 µM. For the same compound, the TGI [30] was 59.5 µM, the TGI [31] was 36.8 µM and the TGI [54] was 74.7 µM. It also gave a TGI [33] of 90.8 µM, a TGI [34] of 40.1 µM and a TGI [35] of 39.5 µM. For the same compound, the TGI [36] was 55.2 µM, the TGI [37] was 30 µM and the TGI [38] was 47.2 µM. It also gave a TGI [55] of 38.2 µM, a TGI [56] of 55.3 µM and a TGI [39] of 48.7 µM. For the same compound, the TGI [40] was 86.4 µM, the TGI [57] was 49.1 µM and the TGI [41] was 39.3 µM. It also gave a TGI [42] of 70.3 µM, a TGI [44] of 46.3 µM and a TGI [45] of 30.3 µM. For the same compound, the TGI [46] was 33.3 µM and the TGI [47] was 37.5 µM.
